The record followed here is publication PMC10954593, “Gastrodinol derivatives and prenylated flavones from the flower branch of Gastrodia elata” (Natural Products and Bioprospecting, 2024).

For one experiment, the system named is MRSA. The experiment can be described thus: anti-MRSA activity (96-well culture plate, OD at 625 nm after 24 h). It counts as cell-based, methicillin-resistant Staphylococcus aureus. The note with it: for MIC50 / MIC50 (50% minimum inhibitory concentration), anti-MRSA: 24 h; for MIC50: read-out: MIC50 (50% minimum inhibitory concentration), anti-MRSA; for inhibition at 100 µM: read-out: Inhibition rate (%) of MRSA; for anti-MRSA activity (in words): abstract statement. The procedure: Prepare samples with DMSO as a solvent into a solution with an initial concentration of 20 mM; Take a 96-well culture plate, dilute the sample to be measured, and add bacterial solution to each well, and the final concentration is 5 × 10^5 CFU/mL; Incubate at 37 °C for 24 h, and the microplate reader determines the OD value at 625 nm. The experiment also set up a media blank control, a bacterial control and a vancomycin-positive drug control.
MIC50 (50% minimum inhibitory concentration) is calculated according to the Reed & Muench method.

Another experiment has as its target AChE (Homo sapiens, UniProt P22303). The experiment can be described thus: biochemical. It counts as biochemical. The note with it: for inhibition at 50 µM: concentration 50 μM, read-out: AChE inhibition rate, primary screening; for IC50: positive control tacrine, read-out: IC50 of AChE-inhibiting activity; for acetylcholinesterase inhibitory activity (in words): abstract statement. As for the experimental part:
The reaction is carried out in a 96-well plate with plates plated by 200 μL/system with 3 replicates per sample; Detect the absorbance value of 405 nm every 30 s within 1 h after the addition of the color developer and substrate.

Where [1] appears, read: Staphylococcus aureus, MRSA, Reed & Muench method, 37 °C.
The mark [2] stands for this setting: Staphylococcus aureus, MRSA, concentration 100 μM, preliminary screen.

Converted amounts (≈) assume the structure as drawn. Read-outs that look alike come from different tables or passages of the source.

Sequence of AChE (P22303 32-614): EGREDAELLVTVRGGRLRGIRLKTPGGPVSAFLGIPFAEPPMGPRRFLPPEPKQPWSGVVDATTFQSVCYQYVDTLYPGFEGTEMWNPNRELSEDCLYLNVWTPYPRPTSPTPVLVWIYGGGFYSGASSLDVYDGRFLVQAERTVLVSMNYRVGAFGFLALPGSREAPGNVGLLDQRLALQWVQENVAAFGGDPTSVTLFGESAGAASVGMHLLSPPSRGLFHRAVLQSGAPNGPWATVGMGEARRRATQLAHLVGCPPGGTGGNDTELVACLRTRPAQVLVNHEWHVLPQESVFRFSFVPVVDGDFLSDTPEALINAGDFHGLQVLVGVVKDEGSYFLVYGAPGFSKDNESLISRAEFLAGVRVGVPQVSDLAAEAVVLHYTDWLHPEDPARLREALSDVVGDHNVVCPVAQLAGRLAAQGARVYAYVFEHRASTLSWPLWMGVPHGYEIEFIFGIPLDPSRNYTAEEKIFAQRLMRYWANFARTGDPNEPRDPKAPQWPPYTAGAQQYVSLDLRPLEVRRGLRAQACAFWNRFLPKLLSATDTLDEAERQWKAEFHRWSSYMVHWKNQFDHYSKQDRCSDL

As for `COc1c(Cc2ccc(O)cc2)c(O)c2c3c(ccc2c1Cc1ccc(O)cc1)C(O)CCC3=O` (stereo not drawn) [Compound 1, 1,5-dihydroxy-6,8-bis(4-hydroxybenzyl)-7-methoxy-2,3-dihydrophenanthren-4(1H)-one], in the experiment on MRSA (setting [1]), the MIC50 was found to be 22.06 ± 0.026 µM (≈ 10.4 µg/mL). In addition, in the experiment with MRSA (setting [2]), the inhibition (commonly the drop in the measured response relative to a control, in per cent) at 100 µM was > 80%.

Consider `COc1cc(O)c2c3c(ccc2c1Cc1ccc(O)cc1)C(=O)C(Cc1ccc(O)cc1)(Cc1ccc(O)cc1)C3=O` [Compound 2, 9-hydroxy-2,2,6-tris(4-hydroxybenzyl)-7-methoxy-1H-cyclopenta[a]naphthalene-1,3(2H)-dione], for which, on AChE, the inhibition at 50 µM is > 60% and the IC50 (as a rule, the concentration that gives 50% inhibition) is 24.7 ± 0.732 µM. For the same compound, the inhibition at 100 µM in the experiment with MRSA (setting [2]) is 77.2 ± 1.61%.

For the compound `COc1cc2ccc3c(c2c(O)c1Cc1ccc(O)cc1)C(=O)C(Cc1ccc(O)cc1)(Cc1ccc(O)cc1)C3=O` [Compound 3, 9-hydroxy-2,2,8-tris(4-hydroxybenzyl)-7-methoxy-1H-cyclopenta[a]naphthalene-1,3(2H)-dione], at AChE, the inhibition at 50 µM is > 60% and the IC50 was found to be 15.7 ± 1.57 µM. Besides, the inhibition at 100 µM in the experiment with MRSA (setting [2]) stood at 13.5 ± 2.48%.

As for `Cc1ccc2c(c1)-c1cc(C3CC(=O)c4c(O)cc(O)cc4O3)c(O)cc1OC2(C)C` (stereo not drawn) [Compound 5, 5,7-dihydroxy-2-(3-hydroxy-6,6,9-trimethyl-6H-benzo[c]chromen-2-yl) chroman-4-one], in the experiment with MRSA (Reed & Muench method, 37 °C), the “MIC50 (50% minimum inhibitory concentration), anti-MRSA” value was found to be 4.46 ± 0.02 µM (≈ 1.87 µg/mL) and the MIC50 was determined as 4.46 µM (≈ 1.87 µg/mL). In addition, the MIC50 in the experiment with MRSA (setting [1]) is 4.4 µM (≈ 1.84 µg/mL). Besides, the inhibition at 100 µM with MRSA (setting [2]) was > 80%. Also, the “anti-MRSA activity (in words)” value with MRSA is listed as “good activity”.

For the compound `CC1(C)C=Cc2c(cc(O)c3c(=O)c(CC(O)C(C)(C)O)c(-c4ccc(O)cc4O)oc23)O1` (stereo not drawn) [Compound 6, 3-(2,3-dihydroxy-3-methylbutyl)-2-(2,4-dihydroxyphenyl)-5-hydroxy-8,8-dimethyl-4H,8H-pyrano[2,3-f] chromen-4-one], the MIC50 in the experiment on MRSA (setting [1]) turned out to be 61.6 ± 1.56 µM (≈ 28 µg/mL). The inhibition at 100 µM in the experiment with MRSA (setting [2]) was > 80%.

Regarding `CC1=CC2c3c(cc(-c4cc5ccc(O)cc5o4)c(Cc4ccc(O)cc4)c3O)OC3(c4ccc(O)cc4O)Oc4cc(O)ccc4C(C1)C23` (stereo not drawn) [Compound 9, 8a-(2,4-dihydroxyphenyl)-6-(6-hydroxybenzofuran-2-yl)-5-(4-hydroxybenzyl)-2-methyl-1,3a1,8a,13b-tetrahydro-3aH-benzo [3, 4] isochromeno[1,8-bc] chromene-4,11-diol], on AChE, the “acetylcholinesterase inhibitory activity (in words)” value was “good acetylcholinesterase inhibitory activity”, the inhibition at 50 µM was > 60% and the IC50 came to 0.488 ± 0.032 µM. Besides, the inhibition at 100 µM in the experiment on MRSA (setting [2]) is 63.95 ± 0.124%.

Consider `CC(C)=CCc1c(O)cc(O)c2c(=O)c3c(oc12)-c1ccc(O)cc1OC3C=C(C)C` (stereo not drawn) [Compound 11, cyclomulberrin], for which the “MIC50 (50% minimum inhibitory concentration), anti-MRSA” value in the experiment with MRSA (Reed & Muench method, 37 °C) came out at 1.908 ± 0.014 µM (≈ 0.802 µg/mL). Further, the MIC50 in the experiment on MRSA (setting [1]) turned out to be 1.91 µM (≈ 0.802 µg/mL). In the experiment with MRSA (setting [2]), the inhibition at 100 µM was > 80%. In the experiment on MRSA, the “anti-MRSA activity (in words)” value is recorded as “good activity”.

Consider `CC(C)=CCc1c(-c2ccc(O)cc2O)oc2c(CC=C(C)C)c(O)cc(O)c2c1=O` [Compound 12, kuwanon C], for which, in the experiment on MRSA (Reed & Muench method, 37 °C), the “MIC50 (50% minimum inhibitory concentration), anti-MRSA” value is 1.911 ± 0.018 µM (≈ 0.807 µg/mL). Besides, the MIC50 in the experiment on MRSA (setting [1]) turned out to be 1.91 µM (≈ 0.807 µg/mL). Moreover, in the experiment with MRSA (setting [2]), the inhibition at 100 µM is > 80%. In the experiment with MRSA, the “anti-MRSA activity (in words)” value is “good activity”.

On to `CC1=C[C@H]2c3c(O)cc(-c4cc5ccc(O)cc5o4)cc3O[C@@]3(c4ccc(O)cc4O)Oc4cc(O)ccc4[C@H](C1)[C@@H]23` [Compound 13, mulberrofuran G], for which, at AChE, the “acetylcholinesterase inhibitory activity (in words)” value is recorded as “good acetylcholinesterase inhibitory activity”, the inhibition at 50 µM is > 60% and the IC50 was 1.06 ± 0.011 µM. Further, the “MIC50 (50% minimum inhibitory concentration), anti-MRSA” value with MRSA (Reed & Muench method, 37 °C) was determined as 1.264 ± 0.005 µM (≈ 0.711 µg/mL). Besides, the MIC50 in the experiment with MRSA (setting [1]) was determined as 1.26 µM (≈ 0.711 µg/mL). Moreover, the inhibition at 100 µM in the experiment on MRSA (setting [2]) is > 80%. In addition, the “anti-MRSA activity (in words)” value with MRSA was “good activity”.

In the case of `CN[C@H](CC(C)C)C(=O)N[C@H]1C(=O)N[C@@H](CC(N)=O)C(=O)N[C@H]2C(=O)N[C@H]3C(=O)N[C@H](C(=O)N[C@H](C(=O)O)c4cc(O)cc(O)c4-c4cc3ccc4O)[C@H](O)c3ccc(c(Cl)c3)Oc3cc2cc(c3O[C@@H]2O[C@H](CO)[C@@H](O)[C@H](O)[C@H]2O[C@H]2C[C@](C)(N)[C@H](O)[C@H](C)O2)Oc2ccc(cc2Cl)[C@H]1O` [Vancomycin, reference compound], in the experiment on MRSA (Staphylococcus aureus, MRSA), the MIC50 was 0.433 ± 0.002 µM (≈ 0.628 µg/mL) and the inhibition at 100 µM stood at 98.86 ± 0.495%.
